Earlier results in patent US12201642B2, “Composition for the treatment of COVID-19” (priority 2020, dated 2025).

Legend:
[1] = tested on: HCMV; details: cultures of smooth muscle cells
[2] = tested on: influenza A H1N1 virus
[3] = tested on: influenza virus

In the case of `CC(=O)Oc1ccccc1C(=O)O` [Aspirin, Acetylsalicylic acid], the “reduction of the yield of HCMV (factor)” value [1] is listed as 2-3, the antiviral effectiveness [2] is listed as “highly effective” and the toxic side-effects ([3]; as anti-influenza agent) is listed as “no toxic side-effects”. The “effect on influenza virus replication” value ([3]; in vitro and in vivo) was “efficiently blocks influenza virus replication”.
